Experimental data reported in article PMC6689897, “Drugging an undruggable pocket on KRAS” (Proceedings of the National Academy of Sciences of the …, 2019).

Experiments:
[1] = tested on: 4 BRAF(v600E) cell lines (A375, RKO, Colo 201, SK-MEL-28); assay: 2D and 3D proliferation in BRAF V600E control cell lines; assay type: cell-based, human; settings: low serum, soft agar, or high serum, adherent conditions
Experimental: (§1) 217 The coordinates and structure factors of the structures have been deposited at the
(§2) 218 Protein Data Bank with the accession codes PDB Code 6GJ5, 6GJ6, 6GJ7, 6GJ8.
(§3) 221 Measurements of various protein–protein interactions were performed using the Alpha
(§4) 222 Screen technology developed by Perkin Elmer. Recombinant RAS proteins (H-, N-, K-
(§5) 223 RAS variants; all KRAS variants are based on KRAS isoform 4B (uniprot id P01116-2);
(§6) 224 KRAS (G12D) 1-169, N-terminal 6His-tag, C-terminal avi-tag was from Xtal
(§7) 225 BioStructures, Inc., KRAS (G12C) 1-169, C-terminal avi-tag, biotinylated, mutations:
(§8) 226 C51S, C80L, C118S, NRAS(wt) 1-172, C-terminal avi-tag, biotinylated; HRAS(wt) 1-
(§9) 227 166, C-terminal avi-tag, biotinylated). Biotinylation was performed in vitro with
228 recombinant BirA biotin-protein ligase as recommended by the manufacturer (Avidity
229 LLC, Aurora, Colorado, USA). Interacting proteins such as SOS1 (564-1049, N-terminal […]
(§10) 231 PI3KA- RBD (160-317, N-term-HIS_GST-tag) were expressed as glutathione S […]
(§11) 245 for 60 min in the dark at room temperature. Single oxygen induced fluorescence was
(§12) 246 measured at an Enspire multimode plate reader (Perkin Elmer) according to the
(§13) 247 manufacturer’s recommendations. Data were analyzed using the GraphPad Prism data […]
275 IgG secondary antibody (Dako #P0448) and detected with ECL (GE Healthcare Life […]

[2] = tested on: 4 BRAF(v600E) cell lines (A375, RKO, Colo 201, SK-MEL-28); assay: pERK modulation in BRAF V600E control cell lines; assay type: cell-based, human
Experimental: as §1, §2, §3, §4, §5, §6, §7, §8, §9
228 recombinant BirA biotin-protein ligase as recommended by the manufacturer (Avidity […]
as §10, §11, §12, §13
313 added according to manufacturer’s instructions. Fluorescence intensity was determined
314 using a fluorescence reader (2030 VICTOR X5, Perkin Elmer). […]
319 MAPK pathway signaling (pERK, pAKT quantification) […]

[3] = biological target: SOScat-catalyzed nucleotide exchange on RAS (Homo sapiens, UniProt P01116); assay: SOS1 nucleotide exchange assay (BODIPY-GDP)
[4] = biological target: GCP-KRAS^G12D,C118S (Homo sapiens, UniProt P01116, C118S/G12D); assay: NMR KD, T35 construct (G12D, C118S), GCP-bound; assay type: binding; settings: versus 17
Experimental: Mixtures of four fragments (each at 250 µM) were incubated in 25
Samples were prepared directly before data acquisition using a Tecan Freedom
88 Evo pipetting system and delivered by a Bruker Sample Rail to the magnet.
90 d11, 100 mM NaCl, 2 mM MgCl2, 0.5 mM TCEP pH 7.4 and 8% (v/v) D2O.
91 were incubated with 500 µM fragment in a 2.5 mm NMR tube at 298K and 1%
92 d6DMSO. Spectra were recorded with 32 transients and 64 data points in the indirect
93 dimension. Processing and analysis were accomplished with Topspin 3.0 (Bruker
94 BioSpin). Binders were identified by manual comparison of spectra in the presence of a
95 fragment and the respective reference spectrum.
98 Measurement of dissociation constants KD for the compounds synthesized.
99 was initially the only method that could provide K Ds for the weakly binding molecules to
100 support compound optimization. 1H/15N SoFast HMQC experiments(3) were recorded in
101 3mm NMR tubes (170µL filling) at a protein concentration of 70-100µM.
102 recorded on a Avance III 700MHz spectrometer equipped with a cryogenically cooled […]
107 DMSO. KDs were calculated from the differences in chemical shift induced by t he small […]
109 dimension were calculated according to the following equation: […]
120 (MicroCalTM, LLC Northampton, MA). Protein solutions were measured in 20 mM […]
125 were analyzed with the MicroCal PEAQ-ITC analysis software package.

## Cn1cnc(Cn2ccc3ccc(CNCc4[nH]c5ccccc5c4[C@H]4NC(=O)c5ccc(O)cc54)cc32)c1 [Compound 1]
[1]
  antiproliferative effect: No antiproliferative effect
[2]
  inhibition of pERK: no inhibition of pERK
[3]; highest concentrations
  SOScat-mediated exchange: full inhibition
[3]; several concentrations
  SOS1-catalyzed nucleotide exchange: inhibits the rate of nucleotide exchange in a dose-dependent manner

## CN(C)Cc1[nH]c2ccccc2c1[C@H]1NC(=O)c2ccc(O)cc21 [Compound 18]
[4]
  more potent than nonphenolic matched molecular pair 17: 6 fold
